According to US20240279207A1, “SUBSTITUTED ACYL SULFONAMIDES FOR TREATING CANCER” (The Broad Institute, Inc., priority 2020, published 2024):
Like-named read-outs stand apart in the source and are kept apart here.

Legend:
[1] = tested on: ESR1 transcription in MVLN cells; assay: MVLN reporter assay: repression of ESR1 transcription (luciferase signal); assay type: cell-based; conditions: Homo sapiens, MVLN, 24 h, luciferase signal after 24 h, read-out: MVLN reporter assay, IC50 [M] (arithmetic mean)
In short: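 To control for cell loss, Alamar Blue (2 h, 530/590 nm) precedes the 24 h luciferase measurement. The reporter is an ERE from the Xenopus vitellogenin A2 gene driving luciferase, stably transfected into ER-expressing MVLN cells; duplicate samples.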

[2] = tested on: MDA-MB-436 cells; assay: MDA-MB-436 proliferation assay (negative control cell line); assay type: cell-based; conditions: Homo sapiens, 144 h, Alamar Blue, read-out: MDA-MB-436 proliferation assay, EC50 [M] (arithmetic mean)
Description: (§1) For compound characterization cell survival assays were routinely run in two cell lines. ZR-75-1 is a breast carcinoma cell line containing a focal KAT6A amplification and high KAT6A protein expression. Proliferation of this cell line is inhibited upon treatment with KAT6A inhibitors. As a negative control cell line MDA-MB-436 were used. These cells carry a […] deletion of the KAT6A gene, have a low KAT6A protein expression and are not growth inhibited upon treatment with KAT6A inhibitors.
(§2) For measurements cell lines were plated at the below indicated concentration per […] in 96-well plates in a humidified incubator at 37° C. and 5% CO2.
MDA-MB-436 (CLS, 300278; breast adenocarcinoma); 3000 cells per well; culture medium: DMEM/Ham's F12 (Biochrom #FG 4815) medium containing 2.5% FBS (Biochrom #S0615).
(§3) Each sample was prepared as triplicate and rim wells were excluded. Plates were incubated at 37° C. and 5% CO2 for 144 h. Cell viability was measured by adding 10 μL of Alamar Blue Reagent (Invitrogen #DAL 1100) and plates were incubated for 2 h at 37° C. and 5% CO2. Fluorescence was measured at 590 nm wavelength with a Tecan Spark or Victor X3 MTP-Reader (PerkinElmer).

[3] = biological target: T1, Recombinant human His-tagged Kat6a protein (amino acids 194-810) (Homo sapiens, UniProt Q92794); assay: Kat6a activity assay (TR-FRET, acetylation of Histone-H4-derived peptide); assay type: biochemical; conditions: 60 mins at 22° C., 220 nM H4 peptide, 600 nM Acetyl Coenzyme A, read-out: KAT6A - DPF/HAT domain IC50 [mol/l] (arithmetic mean)
T1 construct: Kat6a protein (amino acids 194-810); His

[4] = tested on: LCLC97TM1; assay: LCLC97TM1 proliferation assay; assay type: cell-based; conditions: read-out: LCLC97TM1 proliferation assay, EC50 [M] (arithmetic mean)
[5] = tested on: ZR-75-1 cells; assay: ZR-75-1 proliferation assay; assay type: cell-based; conditions: Alamar Blue, read-out: ZR75-1 proliferation assay, EC50 [M] (arithmetic mean)
Description: as §1, §2
ZR-75-1 (ATCC, CRL-1500; breast carcinoma); 3000 cells per well; culture medium: RPMI 1640 (Biochrom #FG 1215) medium containing 2.5% FBS (Biochrom #S0615).
as §3

[6] = Homo sapiens, LCLC-97TM1, LCLC97TM1

T1 sequence (Q92794 194-810): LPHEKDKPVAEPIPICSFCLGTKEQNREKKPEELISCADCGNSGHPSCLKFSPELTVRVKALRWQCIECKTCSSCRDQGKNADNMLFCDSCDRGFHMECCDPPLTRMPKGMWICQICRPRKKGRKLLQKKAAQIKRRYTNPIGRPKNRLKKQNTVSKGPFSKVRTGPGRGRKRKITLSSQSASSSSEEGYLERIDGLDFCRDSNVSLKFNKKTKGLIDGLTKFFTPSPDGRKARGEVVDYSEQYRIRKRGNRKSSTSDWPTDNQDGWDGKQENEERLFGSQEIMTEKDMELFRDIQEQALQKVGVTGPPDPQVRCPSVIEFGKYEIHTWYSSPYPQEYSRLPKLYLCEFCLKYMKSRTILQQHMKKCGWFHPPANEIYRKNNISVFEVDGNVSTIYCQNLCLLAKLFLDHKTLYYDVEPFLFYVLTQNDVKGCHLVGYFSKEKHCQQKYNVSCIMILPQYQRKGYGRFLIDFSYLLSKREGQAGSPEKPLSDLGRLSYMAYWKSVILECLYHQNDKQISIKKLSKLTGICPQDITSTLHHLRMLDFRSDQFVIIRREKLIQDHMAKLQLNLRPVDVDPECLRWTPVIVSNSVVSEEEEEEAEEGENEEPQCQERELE

SMILES | IC50 [1] | EC50 [2] | IC50 [3] | EC50 [4, 6] | EC50 ([5]; Homo sapiens, ZR-75-1, 144 h) | EC50 ([4]; LCLC97TM1) | EC50 ([5]; 144 h)
Cc1ccc2cccc(S(=O)(=O)NC(=O)c3cc4c(F)cc(N5CCC5C)cc4o3)c2n1 (racemic) [Example 221, 4-Fluoro-6-(2-methylazetidin-1-yl)-N-[(2-methyl-8-quinolyl)sulfonyl]benzofuran-2-carboxamide (rac)] | 3.82e-07 M | > 2e-05 M | 61.5 nM | – | – | – | –
CCOc1ccccc1S(=O)(=O)NC(=O)c1cc2c(F)cc(N3CCC3C(C)(C)O)cc2o1 (racemic) [Example 162, N-(2-ethoxybenzene-1-sulfonyl)-4-fluoro-6-[2-(2-hydroxypropan-2-yl)azetidin-1-yl]-1-benzofuran-2-carboxamide (rac)] | 1.95e-05 M | > 2e-05 M | 1990 nM | > 2e-05 M | > 2e-05 M | – | –
CC1(C)CCc2cccc(S(=O)(=O)NC(=O)c3cc4c(F)cc(N5CCC5)cc4o3)c2O1 [Example 80, 6-(Azetidin-1-yl)-N-(2,2-dimethyl-3,4-dihydro-2H-1-benzopyran-8-sulfonyl)-4-fluoro-1-benzofuran-2-carboxamide] | 7.27e-08 M | > 2e-05 M | 12.1 nM | 3.17e-07 M | 1.49e-07 M | – | –
CC(Oc1ccccc1S(=O)(=O)NC(=O)c1cc2c(F)cc(N3CCC3)cc2o1)C(F)(F)F (single isomer, unassigned) [Example 14] | 6.93e-08 M | > 2e-05 M | 28.1 nM | – | – | 1.39e-06 M | 9.93e-08 M
CC(C)c1ccc(OCC(F)(F)F)c(S(=O)(=O)NC(=O)c2cc3c(F)cc(N4CCC4)cc3o2)c1 [Example 215, 6-(azetidin-1-yl)-4-fluoro-N-[5-isopropyl-2-(2,2,2-trifluoroethoxy)phenyl]sulfonyl-benzofuran-2-carboxamide] | 7.43e-08 M | > 2e-05 M | 7.18 nM | 2.83e-06 M | 5.82e-07 M | – | –
CCOc1ccccc1S(=O)(=O)NC(=O)c1cc2ccc(N3CC(C)(F)C3)cc2o1 [Example 116, N-(2-Ethoxybenzene-1-sulfonyl)-6-(3-fluoro-3-methylazetidin-1-yl)-1-benzofuran-2-carboxamide] | 1.45e-06 M | – | 2290 nM | > 2e-05 M | 5.72e-06 M | – | –
CC(C)(C)c1ccc(OCC(F)(F)F)c(S(=O)(=O)NC(=O)c2cc3c(F)cc(N4CCC4)cc3o2)c1 [Example 227, 6-(Azetidin-1-yl)-N-[(5-(tert-butyl)-2-(2,2,2-trifluoroethoxy)phenyl)sulfonyl]-4-fluorobenzofuran-2-carboxamide] | 4.82e-08 M | > 2e-05 M | 5.4 nM | 1.22e-07 M | 7.19e-08 M | – | –
O=C(NS(=O)(=O)c1cccc2ccc(Cl)nc12)c1cc2c(F)cc(N3CCC3)cc2o1 [Example 132, 6-(Azetidin-1-yl)-N-(2-chloroquinoline-8-sulfonyl)-4-fluoro-1-benzofuran-2-carboxamide] | 5.41e-08 M | 1.22e-05 M | 14.1 nM | 1.36e-07 M | 1.08e-07 M | – | –
CC1CCN1c1cc(F)c2cc(C(=O)NS(=O)(=O)c3ccccc3)oc2c1 (racemic) [Example 220, N-(Benzenesulfonyl)-4-fluoro-6-(2-methylazetidin-1-yl)benzofuran-2-carboxamide (rac)] | 6.23e-06 M | > 2e-05 M | 982 nM | – | – | – | –
CCOc1ccccc1S(=O)(=O)NC(=O)c1cc2ccc(N3CC4(CC4)C3)cc2o1 [Example 122, 6-(5-Azaspiro[2.3]hexan-5-yl)-N-(2-ethoxybenzene-1-sulfonyl)-1-benzofuran-2-carboxamide] | > 2e-05 M | > 2e-05 M | > 20000 nM | – | – | – | –
COc1ccc(C(C)(C)C)cc1S(=O)(=O)NC(=O)c1cc2c(F)cc(N3CCC3)cc2o1 [Example 127, 6-(Azetidin-1-yl)-N-(5-tert-butyl-2-methoxybenzene-1-sulfonyl)-4-fluoro-1-benzofuran-2-carboxamide] | 3.54e-09 M | > 2e-05 M | – | 5.73e-08 M | 2.55e-08 M | – | –
CC1(C)CCN1c1cc(F)c2cc(C(=O)NS(=O)(=O)c3ccccc3-c3ccccc3)oc2c1 [Example 217, 6-(2,2-Dimethylazetidin-1-yl)-4-fluoro-N-(2-phenylphenyl)sulfonyl-benzofuran-2-carboxamide] | 1.05e-05 M | > 2e-05 M | – | – | – | – | –
CCOc1ccccc1S(=O)(=O)NC(=O)c1cc2c(F)cc(N3CCC3(C)C)cc2o1 [Example 219, 6-(2,2-Dimethylazetidin-1-yl)-N-(2-ethoxyphenyl)sulfonyl-4-fluoro-benzofuran-2-carboxamide] | 3.86e-06 M | > 2e-05 M | 1850 nM | – | – | – | –
CCOc1ccccc1S(=O)(=O)NC(=O)c1cc2ccc(N3CC(C)(C)C3)cc2o1 [Example 124, 6-(3,3-dimethylazetidin-1-yl)-N-(2-ethoxybenzene-1-sulfonyl)-1-benzofuran-2-carboxamide] | > 2e-05 M | > 2e-05 M | > 20000 nM | – | – | – | –
CCOc1ccccc1S(=O)(=O)NC(=O)c1cc2c(F)cc(N3CCC3C)cc2o1 (racemic) [Example 223, N-(2-Ethoxyphenyl)sulfonyl-4-fluoro-6-(2-methylazetidin-1-yl)benzofuran-2-carboxamide (rac)] | 7.22e-07 M | > 2e-05 M | 189 nM | – | – | – | –
Cc1ccc2cccc(S(=O)(=O)NC(=O)c3cc4c(F)cc(N5CCC5(C)C)cc4o3)c2n1 [Example 218, 6-(2,2-Dimethylazetidin-1-yl)-4-fluoro-N-[(2-methyl-8-quinolyl)sulfonyl]benzofuran-2-carboxamide] | 1.91e-06 M | > 2e-05 M | 271 nM | – | – | – | –
O=C(NS(=O)(=O)c1ccccc1OC(F)(F)F)c1cc2c(F)cc(N3CCC3)cc2o1 [Example 138, 6-(Azetidin-1-yl)-4-fluoro-N-[2-(trifluoromethoxy)benzene-1-sulfonyl]-1-benzofuran-2-carboxamide] | 2.06e-07 M | > 2e-05 M | 69.4 nM | – | – | – | –
CCc1cccc(OC)c1S(=O)(=O)NC(=O)c1cc2c(F)cc(N3CCC3)cc2o1 [Example 136, 6-(azetidin-1-yl)-N-(2-ethyl-6-methoxybenzene-1-sulfonyl)-4-fluoro-1-benzofuran-2-carboxamide] | 1.4e-07 M | > 2e-05 M | 45.6 nM | – | – | – | –
O=C(NS(=O)(=O)c1ccccc1-c1ccccc1)c1cc2c(F)cc(N3CCC3)cc2o1 [Example 19, 6-(Azetidin-1-yl)-N-([1,1′-biphenyl]-2-sulfonyl)-4-fluoro-1-benzofuran-2-carboxamide] | 2.06e-07 M | > 2e-05 M | 18.8 nM | – | – | – | –
CCOc1ccc(Br)cc1S(=O)(=O)NC(=O)c1cc2c(F)cc(N3CCC3)cc2o1 [Example 135, 6-(Azetidin-1-yl)-N-(5-bromo-2-ethoxybenzene-1-sulfonyl)-4-fluoro-1-benzofuran-2-carboxamide] | 9.74e-08 M | > 2e-05 M | 16.5 nM | – | – | – | –
CC1CCN1c1cc(F)c2cc(C(=O)NS(=O)(=O)c3ccccc3-c3ccccc3)oc2c1 (racemic) [Example 222, 4-Fluoro-6-(2-methylazetidin-1-yl)-N-(2-phenylphenyl)sulfonyl-benzofuran-2-carboxamide (rac)] | 1.44e-06 M | > 2e-05 M | 129 nM | – | – | – | –
CCOc1ccccc1S(=O)(=O)NC(=O)c1cc2ccc(N3CC(c4ccccc4)C3)cc2o1 [Example 120, N-(2-ethoxybenzene-1-sulfonyl)-6-(3-phenylazetidin-1-yl)-1-benzofuran-2-carboxamide] | > 2e-05 M | > 2e-05 M | 6520 nM | – | – | – | –
CC1(C)CCN1c1cc(F)c2cc(C(=O)NS(=O)(=O)c3ccccc3)oc2c1 [Example 216, N-(benzenesulfonyl)-6-(2,2-dimethylazetidin-1-yl)-4-fluoro-benzofuran-2-carboxamide] | > 2e-05 M | > 2e-05 M | 9560 nM | – | – | – | –
O=C(NS(=O)(=O)c1cccc2c1OC(F)(F)C(F)(F)O2)c1cc2c(F)cc(N3CCC3)cc2o1 [Example 140, 6-(Azetidin-1-yl)-4-fluoro-N-(2,2,3,3-tetrafluoro-2,3-dihydro-1,4-benzodioxine-5-sulfonyl)-1-benzofuran-2-carboxamide] | 2.91e-07 M | > 2e-05 M | 27.6 nM | – | – | – | –
